Marks after values point to notes of the source that are not given here. Where a SMILES comes first, the peptide text is derived from it. [ ]: non-standard residue; d: D form. The star is where a group is joined. Fmoc = O=C(OCC1c2ccccc2-c2ccccc21)*
Key:
human GALR2 = biological target: T1, human GALR2 (Homo sapiens, UniProt O43603); test: SRE-luc reporter assay, GALR2;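 also: luciferase activity read in cell lysates after exposure to rising peptide concentrations, EC50 being the agonist level giving half-maximal stimulation from a sigmoidal nonlinear regression fit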; type: cell-based; details: HEK293-Gqi cells transfected with SRE-luc and human GALR2; 6 h ligand treatment; mean ± S.E. of at least three independent experiments; NM = not measurable; read-out: GALR2 EC50
T1 construct: host or cells: HEK293 cells stably expressing Gαqi
T1 sequence (O43603 1-387): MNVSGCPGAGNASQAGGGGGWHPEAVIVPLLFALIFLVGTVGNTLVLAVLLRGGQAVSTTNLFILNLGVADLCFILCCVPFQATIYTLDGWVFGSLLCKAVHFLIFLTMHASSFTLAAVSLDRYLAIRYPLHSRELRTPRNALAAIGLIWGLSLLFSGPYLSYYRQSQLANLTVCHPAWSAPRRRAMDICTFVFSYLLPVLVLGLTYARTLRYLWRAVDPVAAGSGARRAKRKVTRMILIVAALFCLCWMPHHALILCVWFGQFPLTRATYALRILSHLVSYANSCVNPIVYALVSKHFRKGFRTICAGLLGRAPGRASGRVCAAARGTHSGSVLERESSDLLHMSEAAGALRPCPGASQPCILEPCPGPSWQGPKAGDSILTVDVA
Procedure: (§4) The generated mutant SPX peptides were incubated with cells expressing GALR2 and GALR3. […] The activities of the receptors were traced using the serum-response element-driven luciferase (SRE-luc) assay system.
(§5) The SRE-luc reporter vector and plasmid containing human GALR1, GALR2, or GALR3 were transfected into HEK293 cells that stably expressed Gqi protein. Cells were then treated with increasing concentrations of mutant peptides, and the receptor activities were determined using the SRE-luc reporter system.
(§6) HEK293 cells stably expressing Gαqi, which mediates Gαi-coupled receptor activation by stimulating Gαq-dependent signaling pathways[59], were maintained in Dulbecco’s modified Eagle’s medium (DMEM) supplemented with 10% FBS, 100 U/ml penicillin G, and 100 μg/ml streptomycin (Invitrogen). Cells were seeded in 48-well plates at a density of 2 × 10^4 cells per well, one day before transfection. A mixture containing 75 ng of the SRE-luc reporter construct, 75 ng of expression plasmid, and 2 μl of Effectene reagent (Qiagen, Chatsworth, CA, USA) was prepared and added to each well according to the manufacturer’s instructions. Cells were then maintained in serum-free DMEM for 16–18 h before treatment with the ligands. Approximately 48 h after transfection, cells were treated with the respective ligands for 6 h. Cells were lysed by the addition of 100 μl lysis buffer. The luciferase activity in 50 μl of cell extract was determined by a luciferase assay system according to the standard protocol for the Synergy 2 Multi-Mode Microplate Reader (BioTek, Winooski, VT, USA).
(§7) For in vitro studies data analysis was performed by nonlinear regression with a sigmoidal dose-response. The agonist concentrations that induced half-maximal stimulation (EC50) or half-maximal inhibition of binding (IC50) were calculated with GraphPad PRISM4 software (GraphPad Software Inc., San Diego, CA, USA). […] All data are presented as mean ± S.E. of at least three independent experiments and a P value of P < 0.05 was considered statistically significant.

human GALR3 = biological target: T2, human GALR3 (Homo sapiens, UniProt O60755); test: SRE-luc reporter assay, GALR3;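 also: luciferase activity read in cell lysates across rising peptide concentrations, EC50 being the agonist concentration giving half-maximal stimulation from a sigmoidal nonlinear fit, Gαqi routing Gi-coupled receptor signaling through Gq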; type: cell-based; details: HEK293-Gqi cells transfected with SRE-luc and human GALR3; 6 h ligand treatment; mean ± S.E. of at least three independent experiments; NM = not measurable; read-out: GALR3 EC50
T2 construct: host or cells: HEK293 cells stably expressing Gαqi
T2 sequence (O60755 1-368): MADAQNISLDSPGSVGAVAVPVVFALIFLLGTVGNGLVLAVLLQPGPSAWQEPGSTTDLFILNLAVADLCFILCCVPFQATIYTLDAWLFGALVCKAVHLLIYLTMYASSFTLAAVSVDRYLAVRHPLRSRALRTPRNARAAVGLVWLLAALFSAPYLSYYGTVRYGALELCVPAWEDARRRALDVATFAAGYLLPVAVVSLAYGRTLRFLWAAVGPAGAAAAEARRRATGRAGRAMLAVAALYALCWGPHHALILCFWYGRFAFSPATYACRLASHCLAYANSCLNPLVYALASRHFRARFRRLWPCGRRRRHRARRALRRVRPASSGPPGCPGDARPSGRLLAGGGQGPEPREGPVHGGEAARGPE
Procedure: as §4, §5, §6, §7

[1] = Peptide stability in FBS by residual IP3 production; type: in vitro ADME, bovine; details: for Half-life activity (h) in FBS: peptide 1 μM in 100% FBS, 37 °C, 0, 3, 6, 12, 24, 48, 72 h, residual activity read as IP3 production ([3H]-inositol) in HEK293 cells expressing GALR2, mean ± S.E., at least three independent experiments
Procedure: (§1) To investigate the effects of the modifications on proteolytic susceptibility, the functional activity of peptides that were incubated in 100% serum at 37 °C for 0, 3, 6, 12, 24, 48, and 72 h was determined via inositol 1,4,5-triphosphate (IP3) production in GALR2-expressing cells (Fig. 4A–C and Table 3). […] In addition, dAla4 and dGln14 substitutions contribute to longer longevity of the peptide in serum. In an additional experiment, we examined the degradation rates of the Qu mutant, as well as the Qu mutant with an N-terminal modification and/or dAla4 and dGln14 substitutions.
(§2) Figure 4 Stability of SPX mutants in the presence of FBS (A) Qu analogs in FBS (B) and human serum (C). Potency of Qu mutants toward GALR2 (D) and GALR3 (E). For stability of SPX mutants, peptides (1 μM) were incubated in serum for 0, 3, 6, 12, 24, 48, and 72 hrs. The remaining activities of the peptides were determined by measuring IP3 production by HEK293 cells that express GALR2 after the indicated times. IP3 production was expressed as percent change, where 100% indicates IP3 production by WT SPX incubated in FBS or human serum for 0 h. For potency of Qu mutants toward GALR2 and GALR3, the SRE-luc reporter vector and plasmid containing human GALR2 or GALR3 were transfected into HEK293 cells that stably expressed Gqi protein. Cells were then treated with increasing concentrations of mutant peptides, and the receptor activities were determined using the SRE-luc reporter system.
(§3) To evaluate the stability of SPX and its analogs in FBS or human serum, peptides were incubated at an initial concentration of 1 μM in 100% serum at 37 °C for 0, 3, 6, 12, 24, 48, and 72 hours. Residual peptide activity was then assessed by measuring IP3 in HEK293 cells expressing GALR2. For the IP3 assay, cells were seeded in 12-well plates at a density of 2.5 × 10^5 cells per well, and then the next day, cells were transiently transfected with 1 μg/well of plasmid containing GALR2 using the Lipofectamine 2000 (Invitrogen) transfection reagent. The day following transfection, cells were incubated in M199 media containing 1% FBS, 1% L-glutamine, 1% penicillin/streptomycin, and 1 μCi/well of myo-^3H inositol for 20 h. After a 30-min incubation in buffer A (140 mM NaCl, 20 mM Hepes, 4 mM KCl, 8 mM D-glucose, 1 mM MgCl2, 1 mM CaCl2, 1 mg/ml free fatty acid bovine serum albumin (BSA), and 10 mM LiCl at pH 7.2), cells were treated with the agonist for 40 min at 37 °C. Media was removed, and the reactions were terminated by addition of 1 ml of 10 mM cold formic acid to each well. The plates were stored at 4 °C for 30 min, and the extracts were then transferred into 6-ml plastic tubes containing 500 μl AG1–8X anion exchange columns (BIO-RAD). The tubes were gently mixed with a vortexer, and the supernatants were removed by aspiration. Two washes with 1 ml of distilled water were performed followed by two additional washes with 60 mM ammonium formate/5mM sodium tetraborate. Tritiated inositol was separated from the column by elution with 1 ml of 1 M ammonium formate/0.1 M formic acid, and 800 μl from the elution were taken from each tube and transferred into 6-ml scintillation vials. Then, 2 ml of scintillation cocktail solution (Ultima Gold^TM, Perkin Elmer, Waltham MA, USA) was added to each sample. The radioactivity of [^3H]-myo-inositol samples was measured using a TRI carb 3100TR liquid scintillation analyzer (Packard).

[2] = Peptide stability in human serum by residual IP3 production; type: in vitro ADME; details: peptide 1 μM in 100% human serum, 37 °C, 0, 3, 6, 12, 24, 48, 72 h; residual activity read as IP3 production ([3H]-inositol) in HEK293 cells expressing GALR2; mean ± S.E., at least three independent experiments
Procedure: as §1, §2, §3

Row | Structure (SMILES) | EC50 (human GALR2) | EC50 (human GALR3) | Half-life activity (h) in FBS [1] | Half-life activity (h) in Human Serum [2] | Initial activity abolished after incubation in FBS ([1]; 12-h incubation in 100% FBS, 37 °C, peptide 1 μM, IP3 production in GALR2-expressing cells)
1 | CSCC[C@H](NC(=O)[C@H](C)NC(=O)[C@H](CCC(N)=O)NC(=O)[C@@H]1CCCN1C(=O)[C@@H](NC(=O)[C@H](Cc1c[nH]c2ccccc12)NC(=O)[C@H](CC(N)=O)NC(C)=O)[C@@H](C)O)C(=O)N[C@@H](CC(C)C)C(=O)N[C@@H](Cc1ccc(O)cc1)C(=O)N[C@@H](CC(C)C)C(=O)N[C@@H](CCCCN)C(=O)NCC(=O)N[C@@H](C)C(=O)N[C@@H](CCC(N)=O)C(N)=O [Ac-N1] | 58.9 ± 11 nM | 81.3 ± 16.7 nM | 8.7 ± 0.6 ^a h |  | 
2 | CC(C)C[C@H](NC(=O)[C@H](C)NC(=O)[C@H](C)NC(=O)[C@H](CC(N)=O)NC(=O)[C@@H](C)NC(=O)[C@@H](NC(=O)[C@H](Cc1c[nH]c2ccccc12)NC(=O)[C@H](CC(N)=O)NC(=O)OCC1c2ccccc2-c2ccccc21)[C@@H](C)O)C(=O)N[C@@H](Cc1ccc(O)cc1)C(=O)N[C@@H](CC(C)C)C(=O)N[C@@H](Cc1ccccc1)C(=O)NCC(=O)N1CCC[C@H]1C(=O)N[C@H](CCC(N)=O)C(N)=O [Fmoc-Qu-dA4-dQ14] (Fmoc-NWT[dA]NAALYLFGP[dQ]-NH2) |  |  | 11.8 ± 0.2 ^a h | 8.8 ± 0.2 ^a h | 
3 | CC(C)C[C@H](NC(=O)[C@H](C)NC(=O)[C@H](C)NC(=O)[C@H](CC(N)=O)NC(=O)[C@@H]1CCCN1C(=O)[C@@H](NC(=O)[C@H](Cc1c[nH]c2ccccc12)NC(=O)[C@H](CC(N)=O)NC(=O)OCC1c2ccccc2-c2ccccc21)[C@@H](C)O)C(=O)N[C@@H](Cc1ccc(O)cc1)C(=O)N[C@@H](CC(C)C)C(=O)N[C@@H](Cc1ccccc1)C(=O)NCC(=O)N1CCC[C@H]1C(=O)N[C@H](CCC(N)=O)C(N)=O [Fmoc-Qu-dQ14] (Fmoc-NWTPNAALYLFGP[dQ]-NH2) |  |  | 8.4 ± 0.3 ^a h | 6.3 ± 0.1 ^a h | 
4 | CC(C)C[C@H](NC(=O)[C@H](C)NC(=O)[C@H](C)NC(=O)[C@H](CC(N)=O)NC(=O)[C@@H]1CCCN1C(=O)[C@@H](NC(=O)[C@H](Cc1c[nH]c2ccccc12)NC(=O)[C@H](CC(N)=O)NC(=O)OCC1c2ccccc2-c2ccccc21)[C@@H](C)O)C(=O)N[C@@H](Cc1ccc(O)cc1)C(=O)N[C@@H](CC(C)C)C(=O)N[C@@H](Cc1ccccc1)C(=O)NCC(=O)N1CCC[C@H]1C(=O)N[C@@H](CCC(N)=O)C(N)=O [Fmoc-Qu] (Fmoc-NWTPNAALYLFGPQ-NH2) |  |  | 6.1 ± 0.2 ^a h | 4.9 ± 0.1 ^a h | 
5 | CSCC[C@H](NC(=O)[C@H](C)NC(=O)[C@H](CCC(N)=O)NC(=O)[C@@H]1CCCN1C(=O)[C@@H](NC(=O)[C@H](Cc1c[nH]c2ccccc12)NC(=O)[C@H](CC(N)=O)NC(=O)OCC1c2ccccc2-c2ccccc21)[C@@H](C)O)C(=O)N[C@@H](CC(C)C)C(=O)N[C@@H](Cc1ccc(O)cc1)C(=O)N[C@@H](CC(C)C)C(=O)N[C@@H](CCCCN)C(=O)NCC(=O)N[C@@H](C)C(=O)N[C@@H](CCC(N)=O)C(N)=O [Fmoc] | 77.6 ± 16 nM | 126 ± 25.9 nM | 14.2 ± 0.2 ^a h |  | 
6 | CSCC[C@H](NC(=O)[C@H](C)NC(=O)[C@H](CCC(N)=O)NC(=O)[C@@H]1CCCN1C(=O)[C@@H](NC(=O)[C@H](Cc1c[nH]c2ccccc12)NC(=O)[C@@H](N)CC(N)=O)[C@@H](C)O)C(=O)N[C@@H](CC(C)C)C(=O)N[C@@H](Cc1ccc(O)cc1)C(=O)N[C@@H](CC(C)C)C(=O)N[C@@H](CCCCN)C(=O)NCC(=O)N[C@@H](C)C(=O)N[C@@H](CCC(N)=O)C(N)=O [WT, spexin, reference compound] | 45.7 ± 5.9 nM | 112 ± 14.5 nM | 4.1 ± 0.5 h |  | 80%
7 | CSCC[C@H](NC(=O)[C@H](C)NC(=O)[C@H](CCC(N)=O)NC(=O)[C@@H](C)NC(=O)[C@@H](NC(=O)[C@H](Cc1c[nH]c2ccccc12)NC(=O)[C@@H](N)CC(N)=O)[C@@H](C)O)C(=O)N[C@@H](CC(C)C)C(=O)N[C@@H](Cc1ccc(O)cc1)C(=O)N[C@@H](CC(C)C)C(=O)N[C@@H](CCCCN)C(=O)NCC(=O)N[C@@H](C)C(=O)N[C@@H](CCC(N)=O)C(N)=O [dA4] (H-NWT[dA]QAMLYLKGAQ-NH2) | 97.7 ± 18.3 nM | 112 ± 23.1 nM | 8.7 ± 0.4 ^a h |  | 
8 | CSCC[C@H](NC(=O)[C@H](C)NC(=O)[C@H](CCC(N)=O)NC(=O)[C@@H]1CCCN1C(=O)[C@@H](NC(=O)[C@H](Cc1c[nH]c2ccccc12)NC(=O)[C@H](N)CC(N)=O)[C@@H](C)O)C(=O)N[C@@H](CC(C)C)C(=O)N[C@@H](Cc1ccc(O)cc1)C(=O)N[C@@H](CC(C)C)C(=O)N[C@@H](CCCCN)C(=O)NCC(=O)N[C@@H](C)C(=O)N[C@@H](CCC(N)=O)C(N)=O [dN1] | 21.4 ± 5.54 nM | 38.9 ± 8 nM | 10.3 ± 0.3 ^a h |  | 
9 | CSCC[C@H](NC(=O)[C@H](C)NC(=O)[C@H](CCC(N)=O)NC(=O)[C@@H]1CCCN1C(=O)[C@@H](NC(=O)[C@H](Cc1c[nH]c2ccccc12)NC(=O)[C@@H](N)CC(N)=O)[C@@H](C)O)C(=O)N[C@@H](CC(C)C)C(=O)N[C@@H](Cc1ccc(O)cc1)C(=O)N[C@@H](CC(C)C)C(=O)N[C@@H](CCCCN)C(=O)NCC(=O)N[C@@H](C)C(=O)N[C@H](CCC(N)=O)C(N)=O [dQa14] | 77.6 ± 16 nM | 324 ± 66.6 nM | 5.6 ± 0.2 ^a h |  | 
10 | CSCC[C@H](NC(=O)[C@H](C)NC(=O)[C@H](CCC(N)=O)NC(=O)[C@@H]1CCCN1C(=O)[C@@H](NC(=O)[C@@H](Cc1c[nH]c2ccccc12)NC(=O)[C@@H](N)CC(N)=O)[C@@H](C)O)C(=O)N[C@@H](CC(C)C)C(=O)N[C@@H](Cc1ccc(O)cc1)C(=O)N[C@@H](CC(C)C)C(=O)N[C@@H](CCCCN)C(=O)NCC(=O)N[C@@H](C)C(=O)N[C@@H](CCC(N)=O)C(N)=O [dW2] | 100 ± 18.7 nM | 138 ± 23.2 nM | 4.5 ± 0.6 h |  | 
